Values after ≈ are worked out from the molar mass of the structure shown. One block for each compound: values may come before it.
Key:
E. coli ∆acrB JW0451-2 = experiment: Neutropenic thigh infection, E. coli ∆acrB; assay type: in vivo, BALB/c mice
E. coli BW25113 = experiment: Neutropenic thigh infection, E. coli BW25113; assay type: in vivo, BALB/c mice; conditions: Study TI-2014-008, BW25113, 100mg/kg per oral
[1] = system: E. coli clinical isolates; experiment: MIC on panel of E. coli clinical isolates; assay type: cell-based
ATCC25922 = experiment: MIC on E. coli ATCC25922; assay type: cell-based; conditions: strain ATCC25922
Experimental: The inoculum used for all the experiments is derived from a single seed lot that is maintained as glycerol stocks at −80 °C and are sub cultured on LB plate for isolated colonies. Single colony of each strain is grown in M9 medium. All test compound stocks and dilutions are prepared in DMSO. Serial two-fold dilutions of compounds are prepared separately, with the concentrations ranging from 2 mg/mL to 0.015 mg/mL. To 150 µl (3–7 × 10^5 CFU/ml) of bacterial culture in 96 well microtitre plates, 3 μL compound from each of the dilutions is added to respective wells to obtain final concentrations ranging from 40 µg/mL to 0.3 µg/mL of the test compounds. Media control, culture control and appropriate reference drug controls are included. […] Growth is monitored by checking absorbance at 600 nm (A600). […] The samples from MIC and above concentrations are plated for MBC (Minimum Bactericidal Concentration). The samples are diluted 1:10 and plated on LB agar plates. […] The killing kinetics is determined by enumerating survivors at various time points following compound exposure. E. coli cells (~10^7 CFU/ml; A600 of 0.1) are treated with various concentrations (40 µg/mL to 0.3 µg/mL) of compounds in a 96-well microtitre plate. At various time intervals (0 to 8 h), 30 μl volumes of treated cultures are serially diluted and plated on LB agar plates. […] Data is expressed as the log10 CFU for each drug treatment.

SMILES: O=C(O)c1cn(C2CC2)c2cc(N3CCNCC3)c(F)cc2c1=O [ciprofloxacin, reference compound]
Log10CFU Mean Diff. vs. Untreated Controls (E. coli ∆acrB JW0451-2; Study TI-2014-007, ∆acrB JW0451-2, 100mg/kg per oral, 6 hours post treatment): 3.477 Log10CFU
Log10CFU Mean Diff. vs. Untreated Controls (E. coli ∆acrB JW0451-2; Study TI-2014-008, ∆acrB JW0451-2, 100mg/kg per oral): 3.098 Log10CFU
Log10CFU Mean Diff. vs. Untreated Controls (E. coli BW25113): 3.212 Log10CFU

MIC Range ([1]; 75 E.coli clinical isolates): 0.03 to 8 µg/mL
MIC50 ([1]; Escherichia coli, 75 E.coli clinical isolates, 50% clinical isolates): 0.06 µg/mL (≈ 0.156 µM)
MIC90 ([1]; Escherichia coli, 75 E.coli clinical isolates, 90% clinical isolates): 8 µg/mL (≈ 20.9 µM)
MIC ([1]; strain SEC001): > 4 µg/mL
MIC ([1]; strain SEC002): 0.13 µg/mL (≈ 0.339 µM)
MIC ([1]; strain SEC003): > 4 µg/mL
MIC ([1]; strain SEC004): > 4 µg/mL
MIC ([1]; strain SEC005): 0.06 µg/mL (≈ 0.156 µM)
MIC ([1]; strain SEC006): 0.03 µg/mL (≈ 0.0782 µM)
MIC ([1]; strain SEC007): 0.03 µg/mL (≈ 0.0782 µM)
MIC ([1]; strain SEC008): 0.13 µg/mL (≈ 0.339 µM)
MIC ([1]; strain SEC011): 0.06 µg/mL (≈ 0.156 µM)
MIC ([1]; strain SEC012): 0.06 µg/mL (≈ 0.156 µM)
MIC ([1]; strain SEC013): 0.06 µg/mL (≈ 0.156 µM)
MIC ([1]; strain SEC014): 0.06 µg/mL (≈ 0.156 µM)
MIC ([1]; strain SEC015): > 4 µg/mL
MIC ([1]; strain SEC016): 0.03 µg/mL (≈ 0.0782 µM)
MIC ([1]; strain SEC017): 0.06 µg/mL (≈ 0.156 µM)
MIC ([1]; strain SEC018): 0.06 µg/mL (≈ 0.156 µM)
MIC ([1]; strain SEC019): 0.06 µg/mL (≈ 0.156 µM)
MIC ([1]; strain SEC020): > 4 µg/mL
MIC ([1]; strain SEC021): 0.03 µg/mL (≈ 0.0782 µM)
MIC ([1]; strain SEC022): 0.03 µg/mL (≈ 0.0782 µM)
MIC ([1]; strain SEC023): 0.25 µg/mL (≈ 0.652 µM)
MIC ([1]; strain SEC024): 0.25 µg/mL (≈ 0.652 µM)
MIC ([1]; strain SEC025): 0.25 µg/mL (≈ 0.652 µM)
MIC ([1]; strain SEC026): 0.13 µg/mL (≈ 0.339 µM)
MIC ([1]; strain SEC028): 0.03 µg/mL (≈ 0.0782 µM)
MIC ([1]; strain SEC029): 0.06 µg/mL (≈ 0.156 µM)
MIC ([1]; strain SEC031): 0.06 µg/mL (≈ 0.156 µM)
MIC ([1]; strain SEC032): 0.03 µg/mL (≈ 0.0782 µM)
MIC ([1]; strain SEC033): 0.03 µg/mL (≈ 0.0782 µM)
MIC ([1]; strain SEC034): 0.03 µg/mL (≈ 0.0782 µM)
MIC ([1]; strain SEC035): 0.5 µg/mL (≈ 1.3 µM)
MIC ([1]; strain SEC036): 0.06 µg/mL (≈ 0.156 µM)
MIC ([1]; strain SEC037): 0.03 µg/mL (≈ 0.0782 µM)
MIC ([1]; strain SEC038): 0.06 µg/mL (≈ 0.156 µM)
MIC ([1]; strain SEC039): 0.03 µg/mL (≈ 0.0782 µM)
MIC ([1]; strain SEC040): 0.06 µg/mL (≈ 0.156 µM)
MIC ([1]; strain SEC041): > 4 µg/mL
MIC ([1]; strain SEC042): 2 µg/mL (≈ 5.22 µM)
MIC ([1]; strain SEC043): 0.06 µg/mL (≈ 0.156 µM)
MIC ([1]; strain SEC044): 0.13 µg/mL (≈ 0.339 µM)
MIC ([1]; strain SEC045): 0.06 µg/mL (≈ 0.156 µM)
MIC ([1]; strain SEC046): 0.03 µg/mL (≈ 0.0782 µM)
MIC ([1]; strain SEC047): 0.06 µg/mL (≈ 0.156 µM)
MIC ([1]; strain SEC048): 0.25 µg/mL (≈ 0.652 µM)
MIC ([1]; strain SEC049): 0.5 µg/mL (≈ 1.3 µM)
MIC ([1]; strain SEC050): 0.03 µg/mL (≈ 0.0782 µM)
MIC ([1]; strain SEC051): 0.03 µg/mL (≈ 0.0782 µM)
MIC ([1]; strain SEC052): 1 µg/mL (≈ 2.61 µM)
MIC ([1]; strain SEC053): 1 µg/mL (≈ 2.61 µM)
MIC ([1]; strain SEC054): 0.03 µg/mL (≈ 0.0782 µM)
MIC ([1]; strain SEC055): 0.06 µg/mL (≈ 0.156 µM)
MIC ([1]; strain SEC057): 0.13 µg/mL (≈ 0.339 µM)
MIC ([1]; strain SEC058): 0.06 µg/mL (≈ 0.156 µM)
MIC ([1]; strain SEC059): 0.06 µg/mL (≈ 0.156 µM)
MIC ([1]; strain SEC060): 0.06 µg/mL (≈ 0.156 µM)
MIC ([1]; strain SEC061): 0.03 µg/mL (≈ 0.0782 µM)
MIC ([1]; strain SEC062): 0.03 µg/mL (≈ 0.0782 µM)
MIC ([1]; strain SEC063): > 4 µg/mL
MIC ([1]; strain SEC064): 0.06 µg/mL (≈ 0.156 µM)
MIC ([1]; strain SEC065): 0.03 µg/mL (≈ 0.0782 µM)
MIC ([1]; strain SEC067): 0.06 µg/mL (≈ 0.156 µM)
MIC ([1]; strain SEC068): > 4 µg/mL
MIC ([1]; strain SEC069): 2 µg/mL (≈ 5.22 µM)
MIC ([1]; strain SEC070): 0.03 µg/mL (≈ 0.0782 µM)
MIC ([1]; strain SEC071): 0.03 µg/mL (≈ 0.0782 µM)
MIC ([1]; strain SEC072): 0.06 µg/mL (≈ 0.156 µM)
MIC ([1]; strain SEC073): 0.13 µg/mL (≈ 0.339 µM)
MIC ([1]; strain SEC074): 0.06 µg/mL (≈ 0.156 µM)
MIC ([1]; strain SEC075): 0.13 µg/mL (≈ 0.339 µM)
MIC ([1]; strain SEC076): 0.06 µg/mL (≈ 0.156 µM)
MIC ([1]; strain SEC077): 0.5 µg/mL (≈ 1.3 µM)
MIC ([1]; strain SEC078): > 4 µg/mL
MIC ([1]; strain SEC079): 0.06 µg/mL (≈ 0.156 µM)
MIC ([1]; strain SEC080): 0.03 µg/mL (≈ 0.0782 µM)
MIC (ATCC25922): 0.06 µg/mL (≈ 0.156 µM)
SMILES: C[C@@H](O)[C@H]1C(=O)N2C(C(=O)O)=C(S[C@@H]3CN[C@H](C(=O)N(C)C)C3)[C@H](C)[C@H]12 [meropenem, reference compound]

From publication PMC5940854, “Nitrothiophene carboxamides, a novel narrow spectrum antibacterial series: Mechanism of action and Efficacy” (Scientific Reports, 2018)
